Publication PMC3371641 (SAR and QSAR in Environmental Research, 2011)

What follows are molecules tested against T1, cytochrome P450 enzyme 1A2 (CYP1A2) (Homo sapiens, UniProt P05177) (assay: enzyme inhibition assay, method reported earlier). Conditions: not given.
T1 sequence (P05177 2-516): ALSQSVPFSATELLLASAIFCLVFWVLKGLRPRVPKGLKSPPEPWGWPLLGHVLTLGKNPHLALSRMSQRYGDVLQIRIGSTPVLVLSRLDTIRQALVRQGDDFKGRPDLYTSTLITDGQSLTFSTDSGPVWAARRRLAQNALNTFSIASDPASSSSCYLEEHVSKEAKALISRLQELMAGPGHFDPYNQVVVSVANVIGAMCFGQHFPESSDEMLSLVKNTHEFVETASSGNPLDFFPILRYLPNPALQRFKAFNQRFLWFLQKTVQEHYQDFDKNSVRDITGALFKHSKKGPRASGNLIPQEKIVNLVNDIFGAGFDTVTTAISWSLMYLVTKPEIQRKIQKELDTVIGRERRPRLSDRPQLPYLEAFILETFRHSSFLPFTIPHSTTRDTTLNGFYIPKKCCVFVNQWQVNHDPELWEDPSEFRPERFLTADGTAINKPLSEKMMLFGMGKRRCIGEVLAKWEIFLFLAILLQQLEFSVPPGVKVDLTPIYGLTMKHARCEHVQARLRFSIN
Type: biochemical
For `C#CCOc1ccc2oc(-c3ccccc3)cc(=O)c2c1` [6FPE, 6-flavonepropargyl ether], the IC50 was 940 nM.
`C#CCOc1ccc(-c2ccccc2)cc1` [4BIPHPE, 4-biphenylpropargyl ether] showed an IC50 of 1550 nM.
In the case of `CC#Cc1ccc2c(ccc3ccccc32)c1` [2MEPHEN, 2-(1-propynyl)phenanthrene], the IC50 is reported as 600 nM.
Molecule `C#CCOc1ccc2c(C)cc(=O)oc2c1` [4M7CPE, 4-methyl-7-coumarinpropargyl ether] has an IC50 of 2010 nM.
In the case of `C#CCOc1ccc(-c2cc(=O)c3ccccc3o2)cc1` [4′FPE, 4′-flavonepropargyl ether], the IC50 is reported as 1270 nM.
For `C#CCOc1ccc2c(=O)cc(-c3ccccc3)oc2c1` [7FPE, 7-flavonepropargyl ether], the IC50 was 390 nM.
For `CCC#Cc1ccc2ccc3cccc4ccc1c2c34` [1EEP, 1-butynylpyrene], the IC50 was 430 nM.
`C#CCOc1ccc2c(C(F)(F)F)cc(=O)oc2c1` [4TFM7CPE, 4-(trifluoromethyl)-7-coumarinpropargyl ether] was tested, and the IC50 was 700 nM.
In the case of `C#CCOc1ccc(-c2cc(=O)c3ccc4ccccc4c3o2)cc1` [4′αNFPE, α-naphthoflavone-4′-propargyl ether], the IC50 is reported as 260 nM.
In the case of `C#CCOc1ccc2c(c1)OC(c1ccccc1)CC2=O` (stereo not drawn) [7FLAVANONEPE, 7FlavanonePE], the IC50 is reported as 970 nM.
Molecule `C#CCOc1cccc2oc(-c3ccccc3)cc(=O)c12` [5FPE, 5-flavonepropargyl ether] has an IC50 of 380 nM.

Same assay, conditions: read-out: EI
Molecule `C#CCOCc1ccc(-c2ccccc2)cc1` [4BIPHMPE, 4-biphenyl methyl propargyl ether] has an IC50 of 1840 nM.
